The values that follow come from patent publication US9150546B2, “Triazine derivative and pharmaceutical composition comprising the same” (SHIONOGI & CO., LTD., priority 2009, dated 2015).

Structures are written as SMILES.

As usually defined, the IC50 is the concentration that gives 50% inhibition.

For the assay, the target named is human P2X3 receptor (Homo sapiens (Human), UniProt P56373). Description: P2X3 receptor inhibition, ATP-evoked Fluo-3 fluorescence (FDSS 3000). Type of assay: cell-based. The conditions noted are these: C6BU-1 cell transfected with human P2X3 receptor gene.
human P2X3 receptor, sequence (P56373 whole entry): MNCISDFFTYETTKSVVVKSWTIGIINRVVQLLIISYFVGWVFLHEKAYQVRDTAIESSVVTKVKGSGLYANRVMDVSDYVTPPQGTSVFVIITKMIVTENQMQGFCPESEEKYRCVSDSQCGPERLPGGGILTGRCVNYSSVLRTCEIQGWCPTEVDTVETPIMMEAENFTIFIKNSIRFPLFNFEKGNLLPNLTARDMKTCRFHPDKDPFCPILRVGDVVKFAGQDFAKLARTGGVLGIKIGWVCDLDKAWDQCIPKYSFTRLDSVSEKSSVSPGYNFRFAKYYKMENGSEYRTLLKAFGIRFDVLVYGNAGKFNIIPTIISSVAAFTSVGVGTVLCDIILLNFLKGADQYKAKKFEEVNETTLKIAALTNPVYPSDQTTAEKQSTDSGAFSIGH
Molecule `CC(C)Oc1ccc(Nc2nc(=O)n(CC3(CO)CC3)c(=O)n2Cc2ccc(Cl)cc2)cc1F` [I-335] gave a half-maximal inhibitory concentration (IC50) of 7 nM.
The same measure for `COC(=O)Cn1c(=O)nc(Nc2ccc(OC(C)C)c(F)c2)n(Cc2ccc(Cl)cc2)c1=O` [I-338]: 53 nM; for `CC(C)Oc1ccc(Nc2nc(=O)n(CCO)c(=O)n2Cc2ccc(F)c(F)c2)cc1F` [I-339]: 775 nM.
The same measure for `CC(C)Oc1ccc(Nc2nc(=O)n(CCO)c(=O)n2Cc2ccc(F)cc2F)cc1F` [I-340]: 336 nM.
With `COc1ccc(Cn2c(=O)nc(Nc3ccc(OC(C)C)c(F)c3)n(Cc3ccc(Cl)cc3)c2=O)cc1` [I-343], it took 21 nM to reach half-maximal inhibition (IC50).
For the molecule `CCCCc1ccc(Nc2nc(=O)n(CCO)c(=O)n2Cc2ccc(Cl)cc2)cc1` [I-344], the midpoint of inhibition, the IC50, lay at 128 nM.
Take `C=CCn1c(=O)nc(Nc2ccc(OC(C)C)c(F)c2)n(Cc2ccc(Cl)cc2)c1=O` [I-346]: the IC50 was 16 nM.
As to `CC(C)Oc1ccc(Nc2nc(=O)n(CCO)c(=O)n2Cc2ccc([N+](=O)[O-])cc2)cc1F` [I-347], the IC50 was found to be 251 nM.
Molecule `CCCn1c(=O)nc(Nc2ccc(OC(C)C)c(F)c2)n(Cc2ccccc2)c1=O` [I-349] came in with an IC50 of 113 nM.
Molecule `CC(C)Oc1ccc(Nc2nc(=O)n(CCOC3CCCCO3)c(=O)n2Cc2ccc(Cl)cc2)cc1Cl` (centres unmarked) [I-350] registered an IC50 of 10 nM.
Molecule `CC(C)Oc1ccc(Nc2nc(=O)n(CCO)c(=O)n2Cc2ccc(Cl)cc2)cc1Cl` [I-351] gave a half-inhibitory concentration (IC50) of 15 nM.
`CC(C)Oc1ccc(Nc2nc(=O)n(CCC(=O)NCCO)c(=O)n2Cc2ccc(Cl)cc2)cc1F` [I-352] registered an IC50 of 36 nM.
Molecule `CC(C)Oc1ccc(Nc2nc(=O)n(CC(=O)NCCO)c(=O)n2Cc2ccc(Cl)cc2)cc1F` [I-353] displayed an IC50 of 18 nM.
`CCOC(=O)CCn1c(=O)nc(Nc2ccc(OC(C)C)c(Cl)c2)n(Cc2ccc(Cl)cc2)c1=O` [I-354] showed an IC50 of 8 nM.
`CCOC(=O)CCn1c(=O)nc(Nc2ccc(OC(C)C)c(F)c2)n(Cc2ccc(Cl)cc2)c1=O` [I-356] came in with an IC50 of 12 nM.
The same measure for `O=c1nc(Nc2cccc(C(F)(F)F)c2)n(Cc2ccc(Cl)cc2)c(=O)n1CCCO` [I-357]: 47 nM; for `CC(C)Oc1ccc(Nc2nc(=O)n(CCCO)c(=O)n2Cc2ccc(Cl)cc2)cc1` [I-359]: 40 nM; for `O=c1nc(Nc2ccc(OC(F)F)cc2)n(Cc2ccc(Cl)cc2)c(=O)n1CCCO` [I-360]: 148 nM.
`CCOc1ccc(Nc2nc(=O)n(CCCO)c(=O)n2Cc2ccc(Cl)cc2)cc1` [I-361]: inhibition was half-maximal at 76 nM (IC50).
Molecule `CC(C)Oc1ccc(Nc2nc(=O)n(CCCO)c(=O)n2Cc2ccc(Cl)cc2)cc1Cl` [I-362] gave a concentration for half-maximal inhibition (IC50) of 7 nM.
`CC(C)Cc1ccc(Nc2nc(=O)n(CC(CO)CO)c(=O)n2Cc2ccc(Cl)cc2)cc1` [I-366] gave an IC50 of 46 nM.
For `O=c1nc(Nc2cccc(C(F)(F)F)c2)n(Cc2ccc(Cl)cc2)c(=O)n1CC(CO)CO` [I-367], the IC50 stood at 40 nM.
Regarding `CC(C)Oc1ccc(Nc2nc(=O)n(CC(CO)CO)c(=O)n2Cc2ccc(Cl)cc2)cc1` [I-368], 41 nM corresponded to half-maximal inhibition (IC50).
Regarding `O=c1nc(Nc2ccc(OC(F)F)cc2)n(Cc2ccc(Cl)cc2)c(=O)n1CC(CO)CO` [I-370], half-maximal inhibition (IC50) required 154 nM.
The same measure for `CCOc1ccc(Nc2nc(=O)n(CC(CO)CO)c(=O)n2Cc2ccc(Cl)cc2)cc1` [I-371]: 63 nM.
Consider `CC(C)n1c(=O)nc(Nc2ccc(C#N)cc2)n(Cc2ccc(Cl)cc2)c1=O` [I-372], for which the IC50 came to 964 nM.
Molecule `O=c1nc(Nc2ccc(Cl)c(Cl)c2)n(Cc2ccc(Cl)cc2)c(=O)n1CCO` [I-373] registered an IC50 of 185 nM.
As to `O=c1nc(Nc2ccc(OC3CCCC3)c(Cl)c2)n(Cc2ccc(Cl)cc2)c(=O)n1CCO` [I-374], 80 nM corresponded to half-maximal inhibition (IC50).
Molecule `CC(C)c1cccc(Nc2nc(=O)n(CCO)c(=O)n2Cc2ccc(Cl)cc2)c1` [I-378] showed an IC50 of 347 nM.
As for `CCCSc1ccc(Nc2nc(=O)n(CCO)c(=O)n2Cc2ccc(Cl)cc2)cc1` [I-379], inhibition was half-maximal at 330 nM (IC50).
Regarding `CCOC(=O)CCn1c(=O)nc(Nc2ccc(OC(C)C)c(Cl)c2)n(CC2CCCCC2)c1=O` [I-380], the IC50 was determined as 34 nM.
The molecule `CC(C)Oc1ccc(Nc2nc(=O)n(CCC(=O)O)c(=O)n2CC2CCCCC2)cc1Cl` [I-382] gave an IC50 of 96 nM.
Regarding `O=c1nc(Nc2ccc(OC(F)(F)F)cc2)n(Cc2ccc(Cl)cc2)c(=O)n1CCO` [I-383], the IC50 is 532 nM.
For `CCC[S+]([O-])c1ccc(Nc2nc(=O)n(CCO)c(=O)n2Cc2ccc(Cl)cc2)cc1` (centres unmarked) [I-385] the value was 908 nM; for `CC(C)Oc1ccc(Nc2nc(=O)n(CCNC(N)=O)c(=O)n2Cc2ccc(Cl)cc2)cc1F` [I-386], 41 nM; for `CNC(=O)NCCn1c(=O)nc(Nc2ccc(OC(C)C)c(F)c2)n(Cc2ccc(Cl)cc2)c1=O` [I-387], 37 nM.
`CC(C)Oc1ccc(Nc2nc(=O)n(CCNC(=O)N(C)C)c(=O)n2Cc2ccc(Cl)cc2)cc1F` [I-388]: the IC50 came out at 36 nM.
Molecule `CCNC(=O)NCCn1c(=O)nc(Nc2ccc(OC(C)C)c(F)c2)n(Cc2ccc(Cl)cc2)c1=O` [I-389] had an IC50 of 64 nM.
Regarding `CC(C)Oc1ccc(Nc2nc(=O)n(CCNC(=O)NCCO)c(=O)n2Cc2ccc(Cl)cc2)cc1F` [I-390], the IC50 amounted to 67 nM.
For the molecule `CC(C)Oc1ccc(Nc2nc(=O)n(CCN3C(=O)CNC3=O)c(=O)n2Cc2ccc(Cl)cc2)cc1F` [I-391], half-maximal inhibition (IC50) required 133 nM.
`CC(C)Oc1ccc(Nc2nc(=O)n(CCNC(=O)NCC(=O)O)c(=O)n2Cc2ccc(Cl)cc2)cc1F` [I-392] showed an IC50 of 38 nM.
For `CC(C)Oc1ccc(Nc2nc(=O)n(C(C)C)c(=O)n2Cc2ccc(Cl)cc2)cn1` [I-394] the value was 435 nM; for `COC(=O)CNC(=O)Cn1c(=O)[nH]/c(=N\c2ccc(OC(C)C)c(F)c2)n(Cc2ccc(Cl)cc2)c1=O` [I-397], 19 nM.
`CC(C)Oc1ccc(/N=c2\[nH]c(=O)n(CC(=O)NC(CO)CO)c(=O)n2Cc2ccc(Cl)cc2)cc1F` [I-398] showed a half-maximal inhibitory concentration (IC50) of 7 nM.
For `COC(=O)C(C)(C)Cn1c(=O)[nH]/c(=N\c2ccc(OC(C)C)c(Cl)c2)n(Cc2ccc(Cl)cc2)c1=O` [I-399] the value was 8 nM; for `CC(C)Oc1ccc(/N=c2\[nH]c(=O)n(CC(=O)NCC(=O)O)c(=O)n2Cc2ccc(Cl)cc2)cc1F` [I-400], 44 nM.
As for `CC(C)Oc1ccc(/N=c2\[nH]c(=O)n(CC(C)(C)C(=O)O)c(=O)n2Cc2ccc(Cl)cc2)cc1Cl` [I-401], the 50% inhibitory concentration (IC50) was found to be 7 nM.
For `COC(=O)C(C)(C)Cn1c(=O)[nH]/c(=N\c2ccc(C(=O)C(C)(C)C)cc2)n(Cc2ccc(Cl)cc2)c1=O` [I-402], the 50% inhibitory concentration (IC50) stood at 443 nM.
For `COC(=O)C(C)(C)Cn1c(=O)[nH]/c(=N\c2ccc(OC(C)C)c(F)c2)n(Cc2ccc(Cl)cc2)c1=O` [I-403] the value was 15 nM; for `COC(=O)C(C)(C)Cn1c(=O)[nH]/c(=N\c2ccc(OC(C)C)c(F)c2)n(Cc2ccc(C)cc2)c1=O` [I-404], 12 nM; for `Cc1ccc(Cn2c(=O)n(CC(C)(C)C(=O)O)c(=O)[nH]/c2=N\c2ccc(OC(C)C)c(F)c2)cc1` [I-405], 32 nM.
Molecule `CC(C)Oc1ccc(/N=c2\[nH]c(=O)n(CCC(C)(C)C(=O)OCc3ccccc3)c(=O)n2Cc2ccc(Cl)cc2)cc1F` [I-406] displayed an IC50 of 30 nM.
The molecule `CC(C)Oc1ccc(/N=c2\[nH]c(=O)n(CCC(C)(C)C(=O)OCc3ccccc3)c(=O)n2Cc2ccc(Cl)cc2)cc1Cl` [I-407] had a half-maximal inhibitory concentration (IC50) of 27 nM.
